Here are results for 20 molecules from patent US20240101576A1, “HETEROCYCLIC INHIBITORS OF EGFR AND/OR HER2, FOR USE IN THE TREATMENT OF CANCER” (Scorpion Therapeutics, Inc., priority 2020, published 2024).

The structures appear in SMILES notation.

Format in all cases: cell-based
The target in experiment [1] is T1, EGFR exon 20 NPG Ins D770_N771 (Ba/F3 cells) (Homo sapiens, UniProt P00533, INS770NPG).
T1 construct: expressed in transfected cells; host or cells: Ba/F3 (murine pro-B cells), retroviral transduction, puromycin selection, IL3-independent pool
As to the kind of experiment: Inhibitor activity on EGFR-dependent cell growth (CellTiter-Glo, 72 h), Ba/F3 EGFR exon 20 NPG Ins. Conditions: read-out: BaF3 NPG IC50. The method, boiled down: (§1)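 IC50s derive from a sigmoidal dose–response fit of CellTiter-Glo signal. The signal was normalised between […]-treated cells and cell-free medium. Ba/F3 mutant-EGFR cells, seeded at 400–800/well depending on the line, had 72 h of exposure to a 10-point, 3-fold compound series.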
A general note: ATP-based viability assays read luminescence as a measure of living cells.

The target in experiment [2] is T2, EGFR exon 20 FQEA Ins A763_V764 (Ba/F3 cells) (Homo sapiens, UniProt P00533, INS763FQEA).
T2 construct: expressed in transfected cells; host or cells: Ba/F3 (murine pro-B cells), retroviral transduction, puromycin selection, IL3-independent pool
Nature of the experiment: Inhibitor activity on EGFR-dependent cell growth (CellTiter-Glo, 72 h), Ba/F3 EGFR exon 20 FQEA Ins. As to conditions: read-out: BaF3 FQEA IC50. The method, boiled down: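 Mutant EGFR drives IL3-independent growth of engineered Ba/F3 pools. L858R cells go in at 400/well, L858R/C797S at 600, and exon 19del or FQEA insertion at 800. After 72 h with compound, plates are equilibrated 15 min at RT. Reagent is added 1:1, followed by 30 min and a luminescence read.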

A further experiment has as its target T3, EGFR WT (Ba/F3 cells) (Homo sapiens, UniProt P00533).
T3 construct: expressed in transfected cells; host or cells: Ba/F3 (murine pro-B cells), retroviral transduction, puromycin selection, maintained with EGF
As to the kind of experiment: Inhibitor activity on EGFR-dependent cell growth (CellTiter-Glo, 72 h), Ba/F3 EGFR WT. Conditions: read-out: BaF3 WT IC50. The method, boiled down: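 This growth assay used Ba/F3 cells that depend on wild-type EGFR and are kept in EGF without IL3. Compounds were made up as 10 mM DMSO stocks and diluted 3-fold over 10 points. 120 nL went onto 600 cells/well. After 72 hours, 40 μL CellTiter-Glo was added and luminescence read on EnVision after 30 min.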

For experiment [3], the target named is T4, EGFR exon 20 SVD Ins D770_N771 (Ba/F3 cells) (Homo sapiens, UniProt P00533, INS770SVD).
T4 construct: expressed in transfected cells; host or cells: Ba/F3 (murine pro-B cells), retroviral transduction, puromycin selection, IL3-independent pool
Nature of the experiment: Inhibitor activity on EGFR-dependent cell growth (CellTiter-Glo, 72 h), Ba/F3 EGFR exon 20 SVD Ins. Conditions: read-out: BaF3 SVD IC50. The method, boiled down:
as §1

For experiment [4], the target named is T5, EGFR exon 20 ASV Ins V769_D770 (Ba/F3 cells) (Homo sapiens, UniProt P00533, INS769ASV).
T5 construct: expressed in transfected cells; host or cells: Ba/F3 (murine pro-B cells), retroviral transduction, puromycin selection, IL3-independent pool
As to the kind of experiment: Inhibitor activity on EGFR-dependent cell growth (CellTiter-Glo, 72 h), Ba/F3 EGFR exon 20 ASV Ins. As to conditions: read-out: BaF3 ASV IC50. The method, boiled down: as §1

T5 sequence (P00533 with tags, fused parts or gaps INS769ASV): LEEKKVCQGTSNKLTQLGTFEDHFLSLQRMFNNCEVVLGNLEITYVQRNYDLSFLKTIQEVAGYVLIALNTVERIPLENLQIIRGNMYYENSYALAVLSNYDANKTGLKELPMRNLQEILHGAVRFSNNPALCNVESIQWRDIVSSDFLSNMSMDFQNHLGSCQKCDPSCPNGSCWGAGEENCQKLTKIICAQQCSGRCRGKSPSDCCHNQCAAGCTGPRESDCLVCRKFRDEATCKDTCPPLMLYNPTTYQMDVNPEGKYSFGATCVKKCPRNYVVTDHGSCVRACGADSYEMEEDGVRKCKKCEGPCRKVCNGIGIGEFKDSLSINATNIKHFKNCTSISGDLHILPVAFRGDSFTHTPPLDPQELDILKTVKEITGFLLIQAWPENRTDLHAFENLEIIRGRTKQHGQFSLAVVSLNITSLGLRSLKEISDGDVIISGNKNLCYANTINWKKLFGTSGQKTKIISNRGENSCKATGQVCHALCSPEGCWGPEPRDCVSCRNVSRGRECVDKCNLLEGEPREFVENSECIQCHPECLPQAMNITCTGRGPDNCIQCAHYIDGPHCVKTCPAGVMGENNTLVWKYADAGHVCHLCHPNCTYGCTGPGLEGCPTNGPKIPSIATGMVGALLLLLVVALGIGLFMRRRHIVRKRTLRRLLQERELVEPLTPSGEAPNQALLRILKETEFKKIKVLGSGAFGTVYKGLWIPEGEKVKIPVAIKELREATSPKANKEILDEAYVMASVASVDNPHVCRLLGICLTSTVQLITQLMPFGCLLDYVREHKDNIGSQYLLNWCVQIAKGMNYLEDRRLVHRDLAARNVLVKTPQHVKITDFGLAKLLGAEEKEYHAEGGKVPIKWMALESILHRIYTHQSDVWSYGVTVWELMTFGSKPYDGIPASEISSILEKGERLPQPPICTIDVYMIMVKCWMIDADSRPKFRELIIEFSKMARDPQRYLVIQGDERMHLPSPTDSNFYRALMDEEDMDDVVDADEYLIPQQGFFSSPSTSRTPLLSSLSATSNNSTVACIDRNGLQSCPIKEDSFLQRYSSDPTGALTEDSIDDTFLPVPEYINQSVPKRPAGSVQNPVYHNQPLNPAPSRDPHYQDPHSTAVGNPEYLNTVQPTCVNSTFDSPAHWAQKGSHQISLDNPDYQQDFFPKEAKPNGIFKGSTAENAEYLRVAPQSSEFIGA
T4 sequence (P00533 with tags, fused parts or gaps INS770SVD): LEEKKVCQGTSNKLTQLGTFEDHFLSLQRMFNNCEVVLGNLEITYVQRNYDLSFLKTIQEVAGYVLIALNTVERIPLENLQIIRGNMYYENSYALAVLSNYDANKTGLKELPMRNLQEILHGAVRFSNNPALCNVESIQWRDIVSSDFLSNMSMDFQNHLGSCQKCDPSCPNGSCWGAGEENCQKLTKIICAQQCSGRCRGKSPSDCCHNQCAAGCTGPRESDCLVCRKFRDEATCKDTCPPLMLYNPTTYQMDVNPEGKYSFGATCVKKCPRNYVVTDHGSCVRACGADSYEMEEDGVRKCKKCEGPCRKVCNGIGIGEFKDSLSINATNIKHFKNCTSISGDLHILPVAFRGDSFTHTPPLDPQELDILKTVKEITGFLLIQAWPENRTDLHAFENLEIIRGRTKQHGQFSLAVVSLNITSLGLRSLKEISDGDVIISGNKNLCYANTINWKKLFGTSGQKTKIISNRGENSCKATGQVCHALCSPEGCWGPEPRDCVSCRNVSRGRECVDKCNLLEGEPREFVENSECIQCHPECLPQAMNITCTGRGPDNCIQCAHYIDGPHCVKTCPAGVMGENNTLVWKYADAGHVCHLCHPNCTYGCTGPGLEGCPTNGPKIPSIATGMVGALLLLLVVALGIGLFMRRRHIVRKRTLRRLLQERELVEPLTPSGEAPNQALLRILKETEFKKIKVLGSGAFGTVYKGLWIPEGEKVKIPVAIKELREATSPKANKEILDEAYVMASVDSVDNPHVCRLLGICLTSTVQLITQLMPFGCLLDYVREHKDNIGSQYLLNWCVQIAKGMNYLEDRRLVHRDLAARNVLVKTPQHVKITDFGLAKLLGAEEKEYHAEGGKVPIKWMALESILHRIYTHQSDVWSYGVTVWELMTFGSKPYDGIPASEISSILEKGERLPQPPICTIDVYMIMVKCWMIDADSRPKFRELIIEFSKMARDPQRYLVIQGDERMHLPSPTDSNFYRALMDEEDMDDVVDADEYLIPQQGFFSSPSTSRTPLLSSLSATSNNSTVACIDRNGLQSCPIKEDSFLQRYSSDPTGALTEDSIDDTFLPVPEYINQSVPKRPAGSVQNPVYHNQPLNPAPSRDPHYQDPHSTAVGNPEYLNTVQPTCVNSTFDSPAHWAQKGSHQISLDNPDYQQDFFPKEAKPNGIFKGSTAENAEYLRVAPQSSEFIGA
T1 sequence (P00533 with tags, fused parts or gaps INS770NPG): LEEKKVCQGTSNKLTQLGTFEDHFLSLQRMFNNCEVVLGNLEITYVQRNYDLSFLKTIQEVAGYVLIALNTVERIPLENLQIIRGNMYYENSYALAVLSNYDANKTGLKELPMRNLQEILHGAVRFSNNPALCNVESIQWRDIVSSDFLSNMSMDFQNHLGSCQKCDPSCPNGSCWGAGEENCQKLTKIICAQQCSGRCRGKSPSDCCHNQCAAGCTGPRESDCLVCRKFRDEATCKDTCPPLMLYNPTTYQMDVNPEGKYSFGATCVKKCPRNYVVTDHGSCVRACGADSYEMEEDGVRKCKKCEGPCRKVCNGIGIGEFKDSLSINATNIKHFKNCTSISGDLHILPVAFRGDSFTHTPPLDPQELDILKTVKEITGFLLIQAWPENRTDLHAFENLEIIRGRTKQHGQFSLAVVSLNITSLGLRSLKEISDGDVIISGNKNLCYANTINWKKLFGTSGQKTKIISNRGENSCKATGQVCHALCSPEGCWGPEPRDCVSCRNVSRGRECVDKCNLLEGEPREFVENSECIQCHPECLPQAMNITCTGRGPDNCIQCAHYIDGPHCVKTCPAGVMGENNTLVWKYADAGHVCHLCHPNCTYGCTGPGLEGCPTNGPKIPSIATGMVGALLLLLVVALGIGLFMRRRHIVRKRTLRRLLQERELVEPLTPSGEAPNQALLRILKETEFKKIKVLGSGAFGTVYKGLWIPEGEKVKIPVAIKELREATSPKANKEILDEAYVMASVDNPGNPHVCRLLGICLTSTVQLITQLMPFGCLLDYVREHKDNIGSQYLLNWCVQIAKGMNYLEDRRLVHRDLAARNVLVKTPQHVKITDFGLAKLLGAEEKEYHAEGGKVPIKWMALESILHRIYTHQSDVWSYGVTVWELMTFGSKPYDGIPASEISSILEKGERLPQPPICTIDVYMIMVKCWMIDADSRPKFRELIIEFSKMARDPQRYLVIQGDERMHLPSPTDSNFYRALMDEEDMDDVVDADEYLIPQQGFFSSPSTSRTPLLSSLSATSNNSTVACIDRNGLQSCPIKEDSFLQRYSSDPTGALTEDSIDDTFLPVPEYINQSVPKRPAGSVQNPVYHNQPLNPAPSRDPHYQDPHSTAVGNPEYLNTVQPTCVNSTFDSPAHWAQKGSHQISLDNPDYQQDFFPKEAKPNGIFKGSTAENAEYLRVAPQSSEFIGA
T3 sequence (P00533 25-1210): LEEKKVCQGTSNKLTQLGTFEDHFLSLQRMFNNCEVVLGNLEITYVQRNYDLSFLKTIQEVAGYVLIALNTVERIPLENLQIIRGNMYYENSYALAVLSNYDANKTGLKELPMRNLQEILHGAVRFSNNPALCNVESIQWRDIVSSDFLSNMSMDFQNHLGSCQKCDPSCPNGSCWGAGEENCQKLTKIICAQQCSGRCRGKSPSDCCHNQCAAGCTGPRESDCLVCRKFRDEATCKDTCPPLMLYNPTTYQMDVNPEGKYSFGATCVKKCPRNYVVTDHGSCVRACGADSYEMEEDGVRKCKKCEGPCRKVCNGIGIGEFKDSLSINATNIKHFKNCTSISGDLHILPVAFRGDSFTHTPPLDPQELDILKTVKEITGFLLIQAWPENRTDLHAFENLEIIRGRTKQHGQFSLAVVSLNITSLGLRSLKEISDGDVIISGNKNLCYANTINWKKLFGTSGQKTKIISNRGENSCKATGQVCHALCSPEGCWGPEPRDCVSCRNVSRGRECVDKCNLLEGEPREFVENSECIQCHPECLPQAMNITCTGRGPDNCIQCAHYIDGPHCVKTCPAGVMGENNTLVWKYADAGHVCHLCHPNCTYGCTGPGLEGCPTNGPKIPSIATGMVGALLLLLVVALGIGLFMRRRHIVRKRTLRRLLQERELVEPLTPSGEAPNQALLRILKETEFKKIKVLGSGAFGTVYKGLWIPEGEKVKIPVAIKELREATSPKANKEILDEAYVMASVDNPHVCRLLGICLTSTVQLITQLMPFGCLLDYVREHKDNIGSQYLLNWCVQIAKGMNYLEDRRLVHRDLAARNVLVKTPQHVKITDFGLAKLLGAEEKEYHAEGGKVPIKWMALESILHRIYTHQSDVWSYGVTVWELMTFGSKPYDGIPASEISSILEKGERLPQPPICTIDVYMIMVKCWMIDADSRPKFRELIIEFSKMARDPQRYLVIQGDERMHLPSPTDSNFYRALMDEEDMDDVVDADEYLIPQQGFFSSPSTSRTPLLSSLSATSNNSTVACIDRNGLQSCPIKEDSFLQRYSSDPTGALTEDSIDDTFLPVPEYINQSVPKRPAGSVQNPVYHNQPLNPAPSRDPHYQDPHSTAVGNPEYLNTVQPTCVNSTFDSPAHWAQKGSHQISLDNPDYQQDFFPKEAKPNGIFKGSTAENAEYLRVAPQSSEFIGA

Usually IC50 stands for the concentration that inhibits the measured activity by half. With `COCC[C@@H]1CNC(=O)c2c1[nH]c(-c1ccncc1F)c2Nc1cccc(Cl)c1OC` [Compound 746], the results for the IC50 (in experiment [1]; in experiment [2]; on EGFR WT (Ba/F3 cells)) were below 100 nM, below 100 nM and 100 to 1000 nM, respectively.

With `COc1c(Cl)cccc1Nc1c(-c2ccnc(NC[C@@H]3CCO3)n2)[nH]c2c1C(=O)NCC2` [compound 719], the half-maximal inhibitory concentration (IC50) in experiment [3] is above 1000 nM; in experiment [1], 100 to 1000 nM; in experiment [2] it was above 1000 nM; at EGFR WT (Ba/F3 cells), above 1000 nM; in experiment [4], 100 to 1000 nM.

Consider `CCO[C@H](C)c1ccc2nccc(-c3[nH]c4c(c3Nc3cccc(Cl)c3OC)C(=O)NCC4)c2n1` [compound 753, 3-[(3-chloro-2-methoxyphenyl)amino]-2-[6-[(1R)-1-ethoxyethyl]-1,5-naphthyridin-4-yl]-1H,5H,6H,7H-pyrrolo[3,2-c]pyridin-4-one; trifluoroacetic acid], for which the IC50 (in experiment [3]; in experiment [1]; in experiment [2]; on EGFR WT (Ba/F3 cells); in experiment [4]) was below 100 nM throughout.

In the case of `COCC[C@H]1CNC(=O)c2c1[nH]c(-c1ccnc(N)n1)c2Nc1cccc(Cl)c1OC` [Compound 727, (7S)-2-(2-aminopyrimidin-4-yl)-3-[(3-chloro-2-methoxyphenyl)amino]-7-(2-methoxyethyl)-1H,5H,6H,7H-pyrrolo[3,2-c]pyridin-4-one], the IC50 in experiment [3] was below 100 nM; in experiment [1] it was below 100 nM; in experiment [2] it was below 100 nM; on EGFR WT (Ba/F3 cells), 100 to 1000 nM; in experiment [4] it was below 100 nM.

For `C=CC(=O)N1CCC2(CC1)CNC(=O)c1c2[nH]c(-c2ccnc(N)n2)c1Nc1cccc(F)c1OC` [Compound 162, 1-acryloyl-2′-(2-aminopyrimidin-4-yl)-3′-((3-fluoro-2-methoxyphenyl)amino)-5′,6′-dihydrospiro[piperidine-4,7′-pyrrolo[3,2-c]pyridin]-4′(1′H)-one], the concentration for half-maximal inhibition (IC50) in experiment [3] was 100 to 1000 nM; in experiment [1], 100 to 1000 nM; on EGFR WT (Ba/F3 cells), 100 to 1000 nM; in experiment [4] it was below 100 nM.

As to `CNC(=O)N1CC[C@@]2(CNC(=O)c3c2[nH]c(-c2ccncc2F)c3Nc2cccc(Cl)c2OC)C1` [Compound 499, (3R)-3′-[(3-chloro-2-methoxyphenyl)amino]-2′-(3-fluoropyridin-4-yl)-N-methyl-4′-oxo-5′,6′-dihydro-1′H-spiro[pyrrolidine-3,7′-pyrrolo[3,2-c]pyridine]-1-carboxamide], the half-maximal inhibitory concentration (IC50) (in experiment [3]; in experiment [1]; on EGFR WT (Ba/F3 cells); in experiment [4]) was above 1000 nM each time.

On to `CNC(=O)N1CC[C@]2(CNC(=O)c3c2[nH]c(-c2ccncc2F)c3Nc2cccc(Cl)c2OC)C1` [Compound 500, (3S)-3′-[(3-chloro-2-methoxyphenyl)amino]-2′-(3-fluoropyridin-4-yl)-N-methyl-4′-oxo-5′,6′-dihydro-1′H-spiro[pyrrolidine-3,7′-pyrrolo[3,2-c]pyridine]-1-carboxamide], for which the 50% inhibitory concentration (IC50) (in experiment [3]; in experiment [1]; on EGFR WT (Ba/F3 cells); in experiment [4]) was above 1000 nM throughout.

With `COc1c(F)cccc1Nc1c(-c2ccnc(C)n2)[nH]c2c1C(=O)NCC2C[C@@H]1COCCO1` (single isomer, unassigned) [Compound 605], the IC50 is 100 to 1000 nM in experiment [3], 100 to 1000 nM in experiment [1], above 1000 nM on EGFR WT (Ba/F3 cells) and 100 to 1000 nM in experiment [4].

As for `C=CC(=O)N1CCC2(CC1)CNC(=O)c1c2[nH]c(-c2ccnc(N)n2)c1Nc1cccc(Cl)c1OC` [Compound 556, 2′-(2-aminopyrimidin-4-yl)-3′-[(3-chloro-2-methoxyphenyl)amino]-1-(prop-2-enoyl)-5′,6′-dihydro-1′H-spiro[piperidine-4,7′-pyrrolo[3,2-c]pyridin]-4′-one], the IC50 in experiment [3] was below 100 nM; in experiment [1], below 100 nM; at EGFR WT (Ba/F3 cells), 100 to 1000 nM; in experiment [4], below 100 nM.

Turning to `COc1c(Cl)cccc1Nc1c(-c2ccnc(C)n2)[nH]c2c(C[C@H]3COCCO3)c[nH]c(=O)c12` [compound 659], the 50% inhibitory concentration (IC50) in experiment [3] is below 100 nM; in experiment [1], below 100 nM; at EGFR WT (Ba/F3 cells), above 1000 nM; in experiment [4] it was below 100 nM.

For `C=CC(=O)NCC[C@H]1CNC(=O)c2c1[nH]c(-c1ccnc(C)n1)c2Nc1cccc(Cl)c1OC` [compound 653], the 50% inhibitory concentration (IC50) in experiment [3] was 100 to 1000 nM; in experiment [1], 100 to 1000 nM; on EGFR WT (Ba/F3 cells), above 1000 nM; in experiment [4], 100 to 1000 nM.

In the case of `C=CC(=O)N1CCC2(CC1)CNC(=O)c1c2[nH]c(-c2ccncc2F)c1Nc1cccc(Cl)c1Cl` [Compound 589, 3′-[(2,3-dichlorophenyl)amino]-2′-(3-fluoropyridin-4-yl)-1-(prop-2-enoyl)-5′,6′-dihydro-1′H-spiro[piperidine-4,7′-pyrrolo[3,2-c]pyridin]-4′-one], the concentration for half-maximal inhibition (IC50) in experiment [3] is below 100 nM; in experiment [1], below 100 nM; at EGFR WT (Ba/F3 cells), 100 to 1000 nM; in experiment [4], below 100 nM.

As for `COc1c(F)cccc1Nc1c(-c2ccnc3c(N)noc23)[nH]c2c1C(=O)NCC2` [compound 523, 2-{3-amino-[1,2]oxazolo[4,5-b]pyridin-7-yl}-3-[(3-fluoro-2-methoxyphenyl)amino]-1H,5H,6H,7H-pyrrolo[3,2-c]pyridin-4-one; trifluoroacetic acid], the half-maximal inhibitory concentration (IC50) in experiment [3] was below 100 nM; in experiment [1], below 100 nM; at EGFR WT (Ba/F3 cells), 100 to 1000 nM; in experiment [4], 100 to 1000 nM.

On to `C=CC(=O)N1CCC2(CC1)CNC(=O)c1c2[nH]c(-c2ccnc(C)n2)c1Nc1cc(F)cc(Cl)c1OC` [compound 642], for which the half-maximal inhibitory concentration (IC50) was below 100 nM in experiment [3], below 100 nM in experiment [1], 100 to 1000 nM on EGFR WT (Ba/F3 cells) and below 100 nM in experiment [4].

Regarding `COc1c(Cl)cccc1Nc1c(-c2ccnc(Nc3ccn(CC(C)(C)O)n3)n2)[nH]c2c1C(=O)NCC2` [compound 537, 3-[(3-chloro-2-methoxyphenyl)amino]-2-(2-{[1-(2-hydroxy-2-methylpropyl)pyrazol-3-yl]amino}pyrimidin-4-yl)-1H,5H,6H,7H-pyrrolo[3,2-c]pyridin-4-one], the half-inhibitory concentration (IC50) in experiment [3] was below 100 nM; in experiment [1] it was below 100 nM; on EGFR WT (Ba/F3 cells) it was 100 to 1000 nM; in experiment [4], below 100 nM.

In the case of `C=CC(=O)N1CCC2(CC1)CNC(=O)c1c2[nH]c(-c2ccncc2F)c1Nc1cccc(F)c1F` [Compound 585, 3′-[(2,3-difluorophenyl)amino]-2′-(3-fluoropyridin-4-yl)-1-(prop-2-enoyl)-5′,6′-dihydro-1′H-spiro[piperidine-4,7′-pyrrolo[3,2-c]pyridin]-4′-one], the IC50 is below 100 nM in experiment [3], below 100 nM in experiment [1], 100 to 1000 nM at EGFR WT (Ba/F3 cells) and below 100 nM in experiment [4].

For the molecule `COC(=O)N1CC2(CNC(=O)c3c2[nH]c(-c2ccncc2F)c3Nc2cccc(Cl)c2OC)C1` [Compound 490, methyl 3′-[(3-chloro-2-methoxyphenyl)amino]-2′-(3-fluoropyridin-4-yl)-4′-oxo-5′,6′-dihydro-1′H-spiro[azetidine-3,7′-pyrrolo[3,2-c]pyridine]-1-carboxylate], the concentration for half-maximal inhibition (IC50) (in experiment [3]; in experiment [1]; at EGFR WT (Ba/F3 cells); in experiment [4]) was above 1000 nM throughout.

For `COC(=O)N1CC[C@@]2(CNC(=O)c3c2[nH]c(-c2ccncc2F)c3Nc2cccc(Cl)c2OC)C1` [Compound 498, methyl (3R)-3′-[(3-chloro-2-methoxyphenyl)amino]-2′-(3-fluoropyridin-4-yl)-4′-oxo-5′,6′-dihydro-1′H-spiro[pyrrolidine-3,7′-pyrrolo[3,2-c]pyridine]-1-carboxylate], the IC50 in experiment [3] is above 1000 nM; in experiment [1] it was 100 to 1000 nM; on EGFR WT (Ba/F3 cells) it was above 1000 nM; in experiment [4], above 1000 nM.

Consider `C=CC(=O)N1CCC(Oc2nc3c(-c4[nH]c5c(c4Nc4cccc(F)c4OC)C(=O)NCC5)ccnc3cc2OC)CC1` [Compound 554, 3-[(3-fluoro-2-methoxyphenyl)amino]-2-(7-methoxy-6-{[1-(prop-2-enoyl)piperidin-4-yl]oxy}-1,5-naphthyridin-4-yl)-1H,5H,6H,7H-pyrrolo[3,2-c]pyridin-4-one], for which the half-maximal inhibitory concentration (IC50) (in experiment [3]; in experiment [1]; on EGFR WT (Ba/F3 cells); in experiment [4]) was below 100 nM throughout.

`COc1c(Cl)cccc1Nc1c(-c2ccnc(-c3cnn(C)n3)n2)[nH]c2c1C(=O)NCC2` [compound 543, 3-[(3-chloro-2-methoxyphenyl)amino]-2-[2-(2-methyl-1,2,3-triazol-4-yl)pyrimidin-4-yl]-1H,5H,6H,7H-pyrrolo[3,2-c]pyridin-4-one]: the IC50 in experiment [3] was below 100 nM; in experiment [1], below 100 nM; on EGFR WT (Ba/F3 cells) it was above 1000 nM; in experiment [4], 100 to 1000 nM.
